Reference: US9540380B2, “Imidazotriazinone compounds” (Ironwood Pharmaceuticals, Inc., priority 2010, dated 2017)

These compounds were tested against T1, PDE9A2 (Homo sapiens, UniProt O76083) (assay: Phosphodiesterase Enzyme Screening Assay, PDE9A2 (Caliper LabChip mobility-shift)). Conditions: 10 concentrations, 4.0 μM cGMP substrate, 1 hour at R.T.; read-out: Band (PDE9A2 IC50).
T1 construct: purchased Reaction Biology Corporation, Malvern, Pa
Format: biochemical
Text: Compounds of the invention were screened against PDE1A, PDE1B, PDE2A, PDE3A, PDE3B, PDE4A1A, PDE4B1, PDE4D3, PDE5A1, PDE6C, PDE7A, PDE8A1, PDE9A2, PDE10A2 AND PDE11A isoforms of the phosphodiesterase enzyme to determine activity and overall selectivity through comparative analysis. The assay generally consists of testing the compounds of the invention at 10 concentrations. Where 8-methoxy-IBMX and Zaprinast were used as reference inhibitors.
The phosphodiesterase enzyme isoforms were obtained from a commercial retailer (Reaction Biology Corporation, Malvern, Pa.) for use in the instant screening assay.
The analysis was completed using the Caliper LabChip 3000 and a 12-sipper LabChip. LabChip assays are separations-based, meaning that the product and substrate are electrophoretically separated, thereby minimizing interferences and yielding the highest data quality available on any screening platform. Z′ factors for both the EZ Reader and LC3000 enzymatic assays are routinely in the 0.8 to 0.9 range. High Z′ values, few false positives, few false negatives and analytical quality reproducibility are the reasons cited for the increasing reliance on the LabChip assays.
The off-chip incubation mobility-shift phosphodiesterase assay uses a microfluidic chip to measure the conversion of a fluorescent cyclic AMP substrate to a 5′-AMP product, or a cyclic GMP substrate to a 5′-GMP product. The reaction mixture, from a microtiter plate well, is introduced through a capillary sipper onto the chip, where the fluorescent substrate and product are separated by electrophoresis and detected via laser-induced fluorescence. […] The precision of microfluidics allows researchers to detect subtle interactions between drug candidates and therapeutic targets. The technology is able to detect both strong and weak inhibitors with high accuracy, and routinely identifies drug candidates that conventional techniques miss.
Reactions were carried out in 100 mM HEPES (pH 7.5), 5 mM MgCl2, 1 mM DTT, 0.003% Brij, 4.0 μM cGMP substrate. The reaction was started by addition of cGMP or cAMP and incubated for 1 hour at R.T. The reaction was terminated by the addition of stop buffer containing 100 mM HEPES (pH 7.5), 15 mM EDTA, 0.015% Brij-35, 5% DMSO. Cyclic AMP/GMP substrate and 5′-AMP/5′-GMP product were separated by charge using electrophoretic mobility shift. Product formed was compared to control wells to determine inhibition or enhancement of enzyme activity.
One or more reference compounds, depending on phosphodiesterase isoform, selected from 8-methoxy-IBMX, Zaprinast, Trequinsin, Pentoxifyline, Rolipram, and Vinpocetine, Dipyridamole, and BRL-50481 were run alongside client samples to ensure data quality. The resulting IC50 is compared against the historical average and must be within 3-fold of this average.
Data points were averages of quadruplicate wells and error bars represented the SEM for each point. IC50s were determined using GraphPad Prism Version 5.01 and the log (inhibitor) vs. response variable slope curve fit.

T1 sequence (O76083 1-533 isoform O76083-2): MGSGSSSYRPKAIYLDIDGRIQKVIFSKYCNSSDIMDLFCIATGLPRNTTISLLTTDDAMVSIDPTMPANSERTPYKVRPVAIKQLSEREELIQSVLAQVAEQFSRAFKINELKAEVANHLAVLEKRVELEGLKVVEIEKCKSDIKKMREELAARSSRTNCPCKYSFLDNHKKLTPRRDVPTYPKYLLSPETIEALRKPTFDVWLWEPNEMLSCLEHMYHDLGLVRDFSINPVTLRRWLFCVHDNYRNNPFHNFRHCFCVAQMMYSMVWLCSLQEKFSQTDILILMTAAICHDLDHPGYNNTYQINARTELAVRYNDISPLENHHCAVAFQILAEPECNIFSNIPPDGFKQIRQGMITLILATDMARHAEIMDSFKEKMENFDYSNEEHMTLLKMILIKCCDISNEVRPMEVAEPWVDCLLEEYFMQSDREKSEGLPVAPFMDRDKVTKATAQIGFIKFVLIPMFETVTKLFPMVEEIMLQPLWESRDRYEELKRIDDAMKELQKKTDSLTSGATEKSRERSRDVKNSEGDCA

Row | Structure (SMILES) | IC50 [µM]
1 | CC1CN(Cc2ccccc2)CC1c1nn2c(C34CC5CC(CC(C5)C3)C4)ncc2c(=O)[nH]1 (single isomer, unassigned; (+)) | < 1
2 | C[C@@H]1CN(Cc2ccccc2)C[C@H]1c1nn2c(C3CCC(F)(F)CC3)ncc2c(=O)[nH]1 (single isomer, unassigned) [(+)-2-((3,4-trans)-1-benzyl-4-methylpyrrolidin-3-yl)-7-(4,4-difluorocyclohexyl)imidazo[5,1-f][1,2,4]triazin-4(3H)-one] | < 1
3 | C[C@@H]1CN(Cc2cnccn2)C[C@H]1c1nn2c(C3CCOCC3)ncc2c(=O)[nH]1 (single isomer, unassigned) [(+)-2-((3,4-trans)-4-methyl-1-(pyrazin-2-ylmethyl)pyrrolidin-3-yl)-7-(tetrahydro-2H-pyran-4-yl)imidazo[5,1-f][1,2,4]triazin-4(3H)-one] | < 1
4 | CC1CN([C@H](C)c2ccccc2)CC1c1nn2c(C3CCOCC3)ncc2c(=O)[nH]1 (single isomer, unassigned; (-)) | < 1
5 | C[C@@H]1CN(Cc2cn3ncccc3n2)C[C@H]1c1nn2c(C3CCOCC3)ncc2c(=O)[nH]1 (single isomer, unassigned) [(+)-2-((3,4-trans)-1-(imidazo[1,2-b]pyridazin-2-ylmethyl)-4-methylpyrrolidin-3-yl)-7-(tetrahydro-2H-pyran-4-yl)imidazo[5,1-f][1,2,4]triazin-4(3H)-one] | < 1
6 | C[C@@H]1CN(Cc2ccccc2)C[C@H]1c1nn2c(-c3ccoc3)ncc2c(=O)[nH]1 (single isomer, unassigned) [(+)-2-((3,4-trans)-1-benzyl-4-methylpyrrolidin-3-yl)-7-(furan-3-yl)imidazo[5,1-f][1,2,4]triazin-4(3H)-one] | < 1
7 | C[C@@H]1CN(Cc2ccccc2)C[C@H]1c1nn2c(C(C)(C)O)ncc2c(=O)[nH]1 (single isomer, unassigned) [(+)-2-((3,4-trans)-1-benzyl-4-methylpyrrolidin-3-yl)-7-(2-hydroxypropan-2-yl)imidazo[5,1-f][1,2,4]triazin-4(3H)-one] | 1 to 10
8 | C[C@@H]1CN(Cc2ccc(F)cc2)C[C@H]1c1nn2c(C3CCOCC3)ncc2c(=O)[nH]1 (single isomer, unassigned) [(+)-2-((3,4-trans)-1-(4-fluorobenzyl)-4-methylpyrrolidin-3-yl)-7-(tetrahydro-2H-pyran-4-yl)imidazo[5,1-f][1,2,4]triazin-4(3H)-one] | < 1
9 | CCS(=O)(=O)N1CCC(c2ncc3c(=O)[nH]c([C@@H]4CN(Cc5ccccc5)C[C@H]4C)nn23)CC1 (single isomer, unassigned) [(+)-2-((3,4-trans)-1-benzyl-4-methylpyrrolidin-3-yl)-7-(1-(ethylsulfonyl)piperidin-4-yl)imidazo[5,1-f][1,2,4]triazin-4(3H)-one] | < 1
10 | Cc1cc(F)ccc1-c1ncc2c(=O)[nH]c([C@@H]3CN(Cc4ccccc4)C[C@H]3C)nn12 (single isomer, unassigned) [(+)-2-((3,4-trans)-1-benzyl-4-methylpyrrolidin-3-yl)-7-(4-fluoro-2-methylphenyl)imidazo[5,1-f][1,2,4]triazin-4(3H)-one] | < 1

Now from value to compound:

Row | IC50 [µM] | Structure (SMILES)
11 | < 1 | C[C@@H]1CN(Cc2ncc3ccccc3n2)C[C@H]1c1nn2c(C3CCOCC3)ncc2c(=O)[nH]1 (single isomer, unassigned) [(−)-2-((3,4-trans)-4-methyl-1-(quinazolin-2-ylmethyl)pyrroli] [(−)-2-((3,4-trans)-4-methyl-1-(quinazolin-2-ylmethyl)pyrrolidin-3-yl)-7-(tetrahydro-2H-pyran-4-yl)imidazo[5,1-f][1,2,4]triazin-4(3H)-one]
12 | < 1 | C[C@@H]1CN(Cc2ccccc2)C[C@H]1c1nn2c(C3CCC(F)(F)CC3)ncc2c(=O)[nH]1 (single isomer, unassigned) [(−)-2-((3,4-trans)-1-benzyl-4-methylpyrrolidin-3-yl)-7-(4,4-difluorocyclohexyl)imidazo[5,1-f][1,2,4]triazin-4(3H)-one]
13 | < 1 | Cc1cc(F)ccc1-c1ncc2c(=O)[nH]c([C@@H]3CN(Cc4ncccn4)C[C@H]3C)nn12 (single isomer, unassigned) [(−)-7-(4-fluoro-2-methylphenyl)-2-((3,4-trans)-4-methyl-1-(pyrimidin-2-ylmethyl)pyrrolidin-3-yl)imidazo[5,1-f][1,2,4]triazin-4(3H)-one]
14 | > 10 | Cc1cc(F)ccc1-c1ncc2c(=O)[nH]c([C@@H]3CN(Cc4ccccc4)C[C@H]3C)nn12 (single isomer, unassigned) [(−)-2-((3,4-trans)-1-benzyl-4-methylpyrrolidin-3-yl)-7-(4-fluoro-2-methylphenyl)imidazo[5,1-f][1,2,4]triazin-4(3H)-one]
15 | 1 to 10 | Cc1ccc(Cl)cc1-c1ncc2c(=O)[nH]c([C@@H]3CNC[C@H]3C)nn12 (relative stereo) [(−)-7-(5-chloro-2-methylphenyl)-2-((3,4-trans)-4-methylpyrrolidin-3-yl)imidazo[5,1-f][1,2,4]triazin-4(3H)-one]
16 | > 10 | C[C@@H]1CN(Cc2ccccc2)C[C@H]1c1nn2c(C(C)(C)O)ncc2c(=O)[nH]1 (single isomer, unassigned) [(−)-2-((3,4-trans)-1-benzyl-4-methylpyrrolidin-3-yl)-7-(2-hydroxypropan-2-yl)imidazo[5,1-f][1,2,4]triazin-4(3H)-one]
17 | 1 to 10 | C[C@@H]1CN(Cc2cnccn2)C[C@H]1c1nn2c(C3CCOCC3)ncc2c(=O)[nH]1 (single isomer, unassigned) [(−)-2-((3,4-trans)-4-methyl-1-(pyrazin-2-ylmethyl)pyrrolidin-3-yl)-7-(tetrahydro-2H-pyran-4-yl)imidazo[5,1-f][1,2,4]triazin-4(3H)-one]
18 | > 10 | CCS(=O)(=O)N1CCC(c2ncc3c(=O)[nH]c([C@@H]4CN(Cc5ccccc5)C[C@H]4C)nn23)CC1 (single isomer, unassigned) [(−)-2-((3,4-trans)-1-benzyl-4-methylpyrrolidin-3-yl)-7-(1-(ethylsulfonyl)piperidin-4-yl)imidazo[5,1-f][1,2,4]triazin-4(3H)-one]
19 | < 1 | C[C@@H]1CN(Cc2ncccn2)C[C@H]1c1nn2c(C3CCC(F)(F)CC3)ncc2c(=O)[nH]1 (single isomer, unassigned) [(+)-7-(4,4-difluorocyclohexyl)-2-((3,4-trans)-4-methyl-1-(pyrimidin-2-ylmethyl)pyrrolidin-3-yl)imidazo[5,1-f][1,2,4]triazin-4(3H)-one]
20 | 1 to 10 | C[C@@H]1CN(Cc2ccccc2)C[C@H]1c1nn2c(-c3ccoc3)ncc2c(=O)[nH]1 (single isomer, unassigned) [(−)-2-((3,4-trans)-1-benzyl-4-methylpyrrolidin-3-yl)-7-(furan-3-yl)imidazo[5,1-f][1,2,4]triazin-4(3H)-one]
21 | < 1 | C[C@@H]1CN(Cc2ncc3ccccc3n2)C[C@H]1c1nn2c(C3CCOCC3)ncc2c(=O)[nH]1 (single isomer, unassigned) [(+)-2-((3,4-trans)-4-methyl-1-(quinazolin-2-ylmethyl)pyrrolidin-3-yl)-7-(tetrahydro-2H-pyran-4-yl)imidazo[5,1-f][1,2,4]triazin-4(3H)-one]
22 | 1 to 10 | Cc1ccc(Cl)cc1-c1ncc2c(=O)[nH]c([C@@H]3CN(Cc4ccccc4)C[C@H]3C)nn12 (single isomer, unassigned) [(−)-2-((3,4-trans)-1-benzyl-4-methylpyrrolidin-3-yl)-7-(5-chloro-2-methylphenyl)imidazo[5,1-f][1,2,4]triazin-4(3H)-one]
23 | > 10 | C[C@@H]1CN(Cc2ncccn2)C[C@H]1c1nn2c(C3CCOCC3)ncc2c(=O)[nH]1 (single isomer, unassigned) [(−)-2-((3,4-trans)-4-methyl-1-(pyrimidin-2-ylmethyl)pyrrolidin-3-yl)-7-(tetrahydro-2H-pyran-4-yl)imidazo[5,1-f][1,2,4]triazin-4(3H)-one]
24 | < 1 | C[C@@H]1CN(Cc2ccc3ccccc3n2)C[C@H]1c1nn2c(C3CCOCC3)ncc2c(=O)[nH]1 (single isomer, unassigned) [(+)-2-((3,4-trans)-4-methyl-1-(quinolin-2-ylmethyl)pyrrolidin-3-yl)-7-(tetrahydro-2H-pyran-4-yl)imidazo[5,1-f][1,2,4]triazin-4(3H)-one]
